# Measurements taken from patent US9226503B2, “Composition and method for attraction of emerald ash borer Agrilus planipennis fairmaire (coleoptera: buprestidae)” (Her Majesty the Queen in Right of Canada, as represented by …, priority 2011, dated 2016).
# Legend:
# [1] = tested on: A. planipennis antennae; assay: EAG dose-response study; design: species or system Agrilus planipennis; conditions: 1 μg applied dose; n=80, 15 antennal preparations
# Source text: EAG analyses were made by methods and equipment generally described by Cossé & and Bartelt (2000). EAG connections were made by inserting a glass-pipette silver-grounding electrode into the back of an excised beetle head. A second glass-pipette silver-recording probe was placed in contact with the distal end of one antenna. Both pipettes were filled with Beadle-Ephrussi (Ephrussi and Beadle 1936) saline.
# For the EAG-dose-response study, (3Z)- and (3E)-lactones were purified (99.9% purity by GC/MS) by high performance liquid chromatography (HPLC) using a Waters 515 pump, a Waters R401 refractive index detector, and a 25 cm by 0.46 cm i.d. silica column (Adsorbosphere Silica 5 μm, Alltech, Deerfield, Ill.), treated with silver nitrate as described by Heath and Sonnett (1980). Solvent was 8% ether in hexane. Ten micro liters of serially diluted solutions (methylene chloride) of synthetic (3Z)-lactone and (3E)-lactone were applied to filter paper strips (0.5 cm×5 cm, Whatman no. 1). The filter paper strips were placed in 14-cm-long Pasteur pipettes, hereafter referred to as stimulus cartridges, after 5 min at room temperature. Stimulus doses tested were 0.01, 0.1, 1, 10, and 100 μg. Male and female antennae were exposed to single 0.2s puffs of odor-bearing air at 5 ml/s by placing the tip of an stimulus cartridge into a hole of a glass tube (0.7 cm ID×20 cm), 10 cm from the outlet and 11 cm away from the antennal preparation. Airflow through the glass tube was humidified and set at 10 ml/s. Puff duration and airflow speeds were maintained by a stimulus flow controller (SFC-2, Syntech, Hilversum, The Netherlands). Stimuli cartridges were selected in random order, beginning with the lowest dosages and working upward to the highest dosages. Each puffed dosage was preceded and followed by a puff from a solvent blank cartridge (filter paper plus solvent). To compensate for possible deterioration of the antennal preparation, a standard control compound, geranyl acetone (1 μg dose) preceded dosages of stimuli compound. EAG amplitudes were normalized according to the responses to geranyl acetone by dividing the amplitude of the EAG generated by the test compounds by that of geranyl acetone. Dose-response series were replicated, using different antennal preparation for each replication, and the EAG responses were expressed as a percentage of the EAG responses to geranyl acetone. Each antennal preparation was tested with freshly prepared sets of stimuli cartridges. Male and female EAG responses were submitted to analysis of variance (ANOVA) using Statistica for Windows software (StatSoft Inc. Tulsa, Okla.)).
# [2] = tested on: A. planipennis; conditions: background, cited studies; cited from earlier work
# [3] = tested on: A. planipennis; assay: Two-choice Y-tube olfactometer assay; format: in vivo, Agrilus planipennis; conditions: (3Z)-hexenol 5 μg
# Procedure: A Y-tube olfactometer (Analytical Research Systems Inc, Gainsville, Fla.) was used to test for attraction of A. planipennis to lactone isomers and host volatiles. […] Each arm was connected to a cylinder that contained the stimulus. Charcoal filtered air was passed into each arm at a flow rate of 1.2 L/min. Treatments included the pheromone alone: (3Z)-lactone (10 μg); (3E)-lactone (10 μg); and 60:40 (3E):(3Z)-lactone (10 μg). Next, we tested bark sesquiterpenes and a green leaf volatile alone: Phoebe oil (25 μg and 2.5 μg) and (3Z)-hexenol (5 μg). We then tested the pheromone combined with bark sesquiterpenes: (3Z)-lactone (10 μg)+Phoebe oil (at both 25 μg and 2.5 μg); (3E)-lactone (10 μg)+Phoebe oil (at both 25 μg and 2.5 μg). Finally, we tested the pheromone combined with the green leaf volatile: (3Z)-lactone (10 μg)+(3Z)-hexenol (5 μg); and (3E)-lactone (10 μg)+(3Z)-hexenol (5 μg). Each stimulus (l μl for single compound treatments and a total of 2 μl for two-compound treatments) was diluted in hexane, placed on a strip of filter paper and given one minute for the solvent to evaporate before being placed in the olfactometer. A second filter paper, treated with the equivalent volume of solvent was placed in the other arm of the olfactometer to serve as the control. The apparatus was rinsed with acetone after each treatment, and the arm attached to the test stimulus was randomized between replicates.
# For each treatment, we tested increasing numbers of adults until we obtained a minimum of 12 beetles responding to the stimuli (either positively or negatively). To obtain this minimum, we tested 15-54 beetles per treatment. For each trial, a single A. planipennis (mature virgin male or female, >10 days old) was given ten minutes to choose between the two stimuli; adults were used only once in the bioassay. […] A chi-square test was conducted for each independent trial.
# [4] = tested on: A. planipennis; assay: Field trapping 2011 experiment 2: (3Z)-lactone, (3Z)-hexenol and trap height factorial, dark green traps; format: in vivo, Agrilus planipennis; conditions: 2×2×2 factorial, lactone 3 mg/lure
# Procedure: Two trapping experiments were conducted in green and white ash plantations (F. pennsylvanica Marsch and F. americana L.) located 40-60 km southeast of Sarnia, Ontario in 2011. Trees were 20-30 yr old, 5-8 m tall, 12-18 cm in diameter, and spaced 2-3 m apart within and between rows. Five sites were used in total: four were green ash and the fifth was a white ash plantation. Trees at four of the sites generally appeared healthy with few or no signs of decline and only a few with obvious signs and symptoms of infestation by A. planipennis. At the fifth site, obvious crown decline and signs of infestation were apparent on about one-quarter of trees.
# Green prism sticky traps (0.30 cm×35.00 cm×58.75 cm) (Synergy Semiochemicals Corp., Burnaby, BC) were used in all field trials, deployed using modified umbrella rig spreaders (Zing Products, Westport, Mass.). Traps were spaced 20-25 m apart and lure treatments replicated in randomized complete block designs. Traps were deployed either using ropes tied between two trees or using a single line over a canopy branch, as described further below for each specific experimental objective. Traps were typically checked every 2 wk and A. planipennis were collected, counted, and sexed.
# Experiment 2 was a 2×2×2 factorial experiment designed to test the effects of (3Z)-lactone, (3Z)-hexenol, trap height, and their interactions on numbers of A. planipennis captured on sticky, dark green (540-nm wavelength) (Francese et al 2010a) prism traps. Traps were baited with either (3Z)-lactone, (3Z)-hexenol, (3Z)-lactone+(3Z)-hexenol, or neither compound (unbaited control) and all treatments were deployed both below the canopy or in the mid-canopy. Traps placed below the canopy were suspended from ropes tied between two trees so the trap was 1-1.5 m from either tree and the top of the trap was 1.5-2 m above the ground. Traps in the canopy were deployed from a single line looped over a mid-canopy branch such that traps were 1-1.5 m from the main stem and their tops were 6 m above ground. (3Z)-Lactone was loaded onto rubber septa lures at a dosage of 3 mg/lure. Release rates of the (3Z)-lactone and (3Z)-hexenol were 60-70 μg/day and 50-100 mg/day, respectively at 25° C. Traps were in the field from 8 June-5 August, with one block at one site (Nauvoo Ranch), 5 blocks at a second site (LaSalle, the one white ash plantation), and 4 blocks at a third site (Brook Line). The 3 mg (3Z)-lactone lures were estimated to maintain adequate release rates for a minimum of three weeks and thus were replaced after three weeks; (3Z)-hexenol lures were not replaced during the experiment.
# Numbers of A. planipennis captured in the trapping experiments were subjected to ANOVA separately for males and females. […]
# [5] = tested on: A. planipennis; conditions: Silk et al. 2009; cited from earlier work
# [6] = females, low dose of Phoebe oil
compound,measurement,setting,value
"CC(=O)CC/C=C(\C)CCC=C(C)C [geranyl acetone, reference compound]",mean EAG response of antennae to standard (±SD),[1],−0.06±0.03 mV
CC/C=C\CCO [(3Z)-hexenol],attractiveness to A. planipennis (literature),[2],highly antennally active and attractive to males
same,attraction of females in Y-tube olfactometer vs hexane control,[3]; [6],slightly attracted
same,females responded in Y-tube olfactometer,[3]; [6],75%
same,attraction of males in Y-tube olfactometer vs hexane control,"[3]; males, lactone 10 μg, chi-square test",highly attracted
same,"mean capture of males per trap, effect of presence of the lure component",[4],significantly and positively affected
same,"mean catch of females, effect of the lure component",[4],not
CCCCCCCCCCCCCCCCC(C)CCCCCCCC (centres unmarked) [9-methylpentacosane],copulatory activity in males upon antennal contact (literature),[5],stimulates full copulatory activity in males
